Assay results as given in publication PMC6222422, “Synthesis and Biological Evaluation of Novel Indole-Derived Thioureas” (Molecules : A Journal of Synthetic Chemistry and Natural …, 2018).
In brackets after ≈: the same amount, converted by molar mass. Where two headings read alike, the source gives them in different places.

Columns and labels:
[1] = test system: HIV-1 EFV^R (K103R + V179D + P225H mutant); test: microbe, parasite or virus in culture; type: cell-based, Human Immunodeficiency Virus type-1; details: Human immunodeficiency virus 1, MT4, 96 h, read-out: EC50 EFV^R
[2] = test system: HIV-1 N119 (Y181C mutant); test: microbe, parasite or virus in culture; type: cell-based, Human Immunodeficiency Virus type-1; details: Human immunodeficiency virus 1, MT4, read-out: EC50 N119
[3] = test system: HIV-1 A17 (K103N + Y181C mutant); test: microbe, parasite or virus in culture; type: cell-based, Human Immunodeficiency Virus type-1; details: Human immunodeficiency virus 1, MT4, 96 h, read-out: EC50 A17
in vitro [4] = details: human
[5] = test system: HIV-1 AZT^R strain (67N, 70R, 215F, 219Q); test: microbe, parasite or virus in culture; type: cell-based, Human Immunodeficiency Virus type-1; details: Human immunodeficiency virus 1, MT4, read-out: EC50 AZT^R
HIV-1 = test: microbe, parasite or virus in culture
[6] = test system: HIV-1 MDR strain (74V, 41L, 106A, 215Y); test: microbe, parasite or virus in culture; type: cell-based, Human Immunodeficiency Virus type-1; details: Human immunodeficiency virus 1, MT4, read-out: EC50 MDR
M. luteus ATCC 10240 [7] = test: MIC, twofold serial agar dilution; type: cell-based; details: Micrococcus luteus, ATCC10240, 18 h, 35 °C, read-out: minimal inhibitory concentrations (MIC)
HSV-1 = test: microbe, parasite or virus in culture; type: cell-based, human herpes 1; details: Human alphaherpesvirus 1, Vero 76, read-out: HSV-1 EC50
S. aureus ATCC 6538 [8] = test: disc diffusion method; type: cell-based, Staphylococcus aureus; details: Staphylococcus aureus, ATCC6538, applied 400 µg per disc, dash = lack of the growth inhibition area, read-out: diameter of growth inhibitory zone (GIZ)
S. epidermidis (MRSE) = test: MIC against hospital strains; details: Staphylococcus epidermidis
S. aureus NCTC 4163 [9] = test: MIC, twofold serial agar dilution; type: cell-based; details: Staphylococcus aureus, NCTC4163, 18 h, 35 °C, read-out: minimal inhibitory concentrations (MIC)
B. cereus ATCC 11778 [10] = test: MIC, twofold serial agar dilution; type: cell-based; details: Bacillus cereus, ATCC11778, 18 h, 35 °C, read-out: minimal inhibitory concentrations (MIC)
Reo-1 = test: microbe, parasite or virus in culture; type: cell-based, reovirus type-1; details: Reovirus sp., BHK, read-out: Reo-1 EC50
M. luteus ATCC 10240 [11] = test: disc diffusion method; type: cell-based, Micrococcus luteus; details: Micrococcus luteus, ATCC10240, applied 400 µg per disc, dash = lack of the growth inhibition area, read-out: diameter of growth inhibitory zone (GIZ)
in vitro [12] = details: African green monkey (Cercopithecus aethiops)
B. subtilis ATCC 6633 [13] = test: disc diffusion method; type: cell-based, Bacillus subtilis; details: Bacillus subtilis, ATCC6633, applied 400 µg per disc, dash = lack of the growth inhibition area, read-out: diameter of growth inhibitory zone (GIZ)
B. subtilis ATCC 6633 [14] = test: MIC, twofold serial agar dilution; type: cell-based; details: Bacillus subtilis, ATCC6633, 18 h, 35 °C, read-out: minimal inhibitory concentrations (MIC)
M. luteus ATCC 9341 [15] = test: MIC, twofold serial agar dilution; type: cell-based; details: Micrococcus luteus, ATCC9341, 18 h, 35 °C, read-out: minimal inhibitory concentrations (MIC)
VSV = test: microbe, parasite or virus in culture; type: cell-based; details: Vesicular stomatitis virus, Vero 76, read-out: VSV EC50
B. cereus ATCC 11778 [16] = test: disc diffusion method; type: cell-based, Bacillus cereus; details: Bacillus cereus, ATCC11778, applied 400 µg per disc, dash = lack of the growth inhibition area, read-out: diameter of growth inhibitory zone (GIZ)
VV = test: microbe, parasite or virus in culture; type: cell-based; details: Orthopoxvirus vaccinia, Vero 76, read-out: VV EC50
in vitro [17] = details: Syrian hamster (Mesocricetus auratus)
in vitro [18] = details: cattle (Bos taurus)
S. aureus ATCC 25923 [19] = test: MIC, twofold serial agar dilution; type: cell-based; details: Staphylococcus aureus, ATCC25923, 18 h, 35 °C, read-out: minimal inhibitory concentrations (MIC)
M. luteus ATCC 9341 [20] = test: disc diffusion method; type: cell-based, Micrococcus luteus; details: Micrococcus luteus, ATCC9341, applied 400 µg per disc, dash = lack of the growth inhibition area, read-out: diameter of growth inhibitory zone (GIZ)
RSV = test: microbe, parasite or virus in culture; type: cell-based, human respiratory syncytial virus; details: human respiratory syncytial virus, Vero 76, read-out: RSV EC50
S. aureus ATCC 6538 [21] = test: MIC, twofold serial agar dilution; type: cell-based; details: Staphylococcus aureus, ATCC6538, 18 h, 35 °C, read-out: minimal inhibitory concentrations (MIC)
S. aureus NCTC 4163 [22] = test: disc diffusion method; type: cell-based, Staphylococcus aureus; details: Staphylococcus aureus, NCTC4163, applied 400 µg per disc, dash = lack of the growth inhibition area, read-out: diameter of growth inhibitory zone (GIZ)
YFV = test: microbe, parasite or virus in culture; type: cell-based; details: Yellow fever virus, BHK, read-out: YFV EC50
S. aureus ATCC 25923 [23] = test: disc diffusion method; type: cell-based, Staphylococcus aureus; details: Staphylococcus aureus, ATCC25923, applied 400 µg per disc, dash = lack of the growth inhibition area, read-out: diameter of growth inhibitory zone (GIZ)
CV-B5 = test: microbe, parasite or virus in culture; type: cell-based, coxsackievirus B5; details: Enterovirus B, CVB5, Vero 76, read-out: CV-B5 EC50
Sb-1 = test: microbe, parasite or virus in culture; type: cell-based, poliovirus type-1; details: Enterovirus C, Vero 76, read-out: Sb-1 EC50
BVDV = test: microbe, parasite or virus in culture; type: cell-based, bovine viral diarrhoea virus; details: Bovine viral diarrhea virus isolates and strains, MDBK, in Bos taurus, read-out: BVDV EC50
Cytotoxicity, MTT method = details: African green monkey (Cercopithecus aethiops)

In the case of Cc1ccnc2c1NC(=O)c1cccnc1N2C1CC1 [Nevirapine], the EC50 [1] is reported as 100 µM, the EC50 [2] is reported as 6.3 ± 0.05 µM and the EC50 [3] is reported as 80 µM. For the same molecule, the CC50 (in vitro [4]) was over 100 µM, the EC50 [5] was 0.078 ± 0.008 µM and the EC50 (HIV-1; Human immunodeficiency virus 1, MT4, read-out: EC50 HIV-1) was 0.08 ± 0.005 µM. For the same molecule, the EC50 [6] was 5 ± 0.6 µM.

Work on O=C1Nc2ccc(Cl)cc2[C@@](C#CC2CC2)(C(F)(F)F)O1 [Efavirenz] yielded an EC50 [1] of 7 ± 0.8 µM, an EC50 [2] of 0.018 ± 0.002 µM and an EC50 [3] of 0.075 ± 0.009 µM. The CC50 (in vitro [4]) was 40 µM and the EC50 [5] was 0.001 ± 0.0002 µM.

Molecule C=C(C)CNC(=S)NCCc1c[nH]c2ccccc12 [Compound 19, 1-(2-(1H-Indol-3-yl)ethyl)-3-(2-methylallyl)thiourea] has an MIC (M. luteus ATCC 10240 [7]) of 50 µg/mL (≈ 183 µM), an EC50 (HSV-1) of over 89 µM and a zone of inhibition at 400 µg/disc (S. aureus ATCC 6538 [8]) of 11 mm. The MIC (S. epidermidis (MRSE); hospital S. epidermidis MRSE strain 430/11) was 12.5 µg/mL (≈ 45.7 µM), the MIC (S. epidermidis (MRSE); hospital S. epidermidis MRSE strain 431/11) was 100 µg/mL (≈ 366 µM) and the MIC (S. epidermidis (MRSE); hospital S. epidermidis MRSE strain 432/11) was 12.5 µg/mL (≈ 45.7 µM). The MIC (S. epidermidis (MRSE); hospital S. epidermidis MRSE strain 433/11) was 50 µg/mL (≈ 183 µM), the MIC (S. epidermidis (MRSE); hospital S. epidermidis MRSE strain 434/11) was 12.5 µg/mL (≈ 45.7 µM) and the MIC (S. epidermidis (MRSE); hospital S. epidermidis MRSE strain 435/11) was 50 µg/mL (≈ 183 µM). For the same molecule, the MIC (S. epidermidis (MRSE); hospital S. epidermidis MRSE strain 436/11) was 100 µg/mL (≈ 366 µM), the MIC (S. epidermidis (MRSE); hospital S. epidermidis MRSE strain 437/11) was 200 µg/mL (≈ 732 µM) and the MIC (S. epidermidis (MRSE); hospital S. epidermidis MRSE strain 438/11) was 100 µg/mL (≈ 366 µM). For the same molecule, the MIC (S. epidermidis (MRSE); hospital S. epidermidis MRSE strain 439/11) was 50 µg/mL (≈ 183 µM), the MIC (S. aureus NCTC 4163 [9]) was 400 µg/mL (≈ 1460 µM) and the MIC (B. cereus ATCC 11778 [10]) was 200 µg/mL (≈ 732 µM). It also gave an EC50 (Reo-1) of over 35 µM, a zone of inhibition at 400 µg/disc (M. luteus ATCC 10240 [11]) of 14 mm and a CC50 (in vitro [12]) of 89 µM. It also gave a melting point of 141 to 143 °C, a zone of inhibition at 400 µg/disc (B. subtilis ATCC 6633 [13]) of 13 mm and an MIC (B. subtilis ATCC 6633 [14]) of 400 µg/mL (≈ 1460 µM). The MIC (M. luteus ATCC 9341 [15]) was 200 µg/mL (≈ 732 µM), the EC50 (VSV) was over 89 µM and the zone of inhibition at 400 µg/disc (B. cereus ATCC 11778 [16]) was 13 mm. The EC50 (VV) was over 89 µM, the CC50 (in vitro [4]) was over 100 µM and the CC50 (in vitro [17]) was 35 µM. It also gave a CC50 (in vitro [18]) of over 100 µM, an MIC (S. aureus ATCC 25923 [19]) of 400 µg/mL (≈ 1460 µM) and a zone of inhibition at 400 µg/disc (M. luteus ATCC 9341 [20]) of 13 mm. The EC50 (RSV) was over 89 µM, the MIC (S. aureus ATCC 6538 [21]) was 200 µg/mL (≈ 732 µM) and the EC50 (HIV-1; Human immunodeficiency virus 1, MT4, read-out: HIV-1 EC50) was over 100 µM. The zone of inhibition at 400 µg/disc (S. aureus NCTC 4163 [22]) was 12 mm, the EC50 (YFV) was over 35 µM and the zone of inhibition at 400 µg/disc (S. aureus ATCC 25923 [23]) was 12 mm. It also gave an EC50 (CV-B5) of over 89 µM, an EC50 (Sb-1) of over 89 µM and an EC50 (BVDV) of at least 100 µM.

O=c1cnn([C@@H]2O[C@H](CO)[C@@H](O)[C@H]2O)c(=O)[nH]1 [6-Aza-uridine, 6-azauridine, reference compound] showed a CC50 (Cytotoxicity, MTT method) of 12 µM and an EC50 (RSV) of 1.4 ± 0.06 µM.
